Measurements taken from PubChem BioAssay AID296 (DTP/NCI, 2004).
Several values for one entry are separate records, joined by “and”; a condition that tells them apart may be missing. Equal entries are not always repeated. Results filed as inconclusive are left out.

Test system: MX-1 breast xenograft, nude mice, tumor weight T/C
Assay: NCI In Vivo Anticancer Drug Screen. Data for tumor model Human Mammary Carcinoma MX-1 Xenograft (intrarenal inoculation) in NU/NU Swiss (nude) mice
Settings: endpoint: mean tumor weight change, higher = larger tumour
Summary of the method: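 Read-out: treated (T) over vehicle control (C) ratio of survival or tumor size. Dosing in animals carrying the transplanted tumor.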

[1] = dose: 100.0 mg/kg/injection, schedule: Q01DX010 (sc), vehicle: Klucel (hydroxypropylcellulose) (HPC)
[2] = dose: 800.0 mg/kg/injection, schedule: Q01DX010 (sc), vehicle: Klucel (hydroxypropylcellulose) (HPC)
[3] = dose: 300.0 mg/kg/injection, schedule: Q04DX003 (sc), vehicle: saline with Tween-80
[4] = dose: 600.0 mg/kg/injection, schedule: Q04DX003 (sc), vehicle: saline with Tween-80
[5] = dose: 150.0 mg/kg/injection, schedule: Q04DX003 (sc), vehicle: Klucel (hydroxypropylcellulose) (HPC)
[6] = dose: 300.0 mg/kg/injection, schedule: Q04DX003 (sc), vehicle: Klucel (hydroxypropylcellulose) (HPC)
[7] = dose: 600.0 mg/kg/injection, schedule: Q04DX003 (sc), vehicle: Klucel (hydroxypropylcellulose) (HPC)
[8] = dose: 200.0 mg/kg/injection, schedule: Q04DX003 (sc), vehicle: saline with Tween-80
[9] = dose: 400.0 mg/kg/injection, schedule: Q04DX003 (sc), vehicle: saline with Tween-80
[10] = dose: 800.0 mg/kg/injection, schedule: Q04DX003 (sc), vehicle: saline with Tween-80
[11] = dose: 1200.0 mg/kg/injection, schedule: Q04DX003 (sc), vehicle: saline with Tween-80
[12] = dose: 2400.0 mg/kg/injection, schedule: Q04DX003 (sc), vehicle: saline with Tween-80
[13] = dose: 1200.0 mg/kg/injection, schedule: Q04DX003 (sc), vehicle: Klucel (hydroxypropylcellulose) (HPC)
[14] = dose: 100.0 mg/kg/injection, schedule: Q01DX010 (sc), vehicle: saline

For `CC(=O)[O][Pb]([O]C(C)=O)([c]1ccccc1)[c]1ccccc1`, the T/C (dose: 25.0 mg/kg/injection, schedule: Q01DX010 (sc), vehicle: Klucel (hydroxypropylcellulose) (HPC)) was 105 % of control, the T/C (dose: 50.0 mg/kg/injection, schedule: Q01DX010 (sc), vehicle: Klucel (hydroxypropylcellulose) (HPC)) was 167 % of control and the T/C [1] was 122 % of control. The T/C [2] was 51 % of control.

`COc1cc2c3c(cccc3c1)C(=O)N(CCN(C)C)C2=O` was tested, and the T/C [3] was 100 % of control and the T/C [4] was 103 % of control.

In the case of `[Cl][Pt+2][Cl].[NH-]C1CCC1.[NH2-]`, the T/C (dose: 6.25 mg/kg/injection, schedule: Q04DX003 (sc), vehicle: suspension in saline) is reported as -100 % of control and the T/C (dose: 25.0 mg/kg/injection, schedule: Q04DX003 (sc), vehicle: suspension in saline) is reported as -84 % of control and -100 % of control.

`C[CH2][Pb]([CH2]C)([CH2]C)[O]C(=O)COc1ccccc1` was tested, and the T/C (dose: 4.5 mg/kg/injection, schedule: Q04DX003 (sc), vehicle: saline with Tween-80) was 66 % of control, the T/C (dose: 9.0 mg/kg/injection, schedule: Q04DX003 (sc), vehicle: saline with Tween-80) was 112 % of control and the T/C (dose: 18.0 mg/kg/injection, schedule: Q04DX003 (sc), vehicle: saline with Tween-80) was 79 % of control.

With `O=c1nc(-c2ccco2)sc(=O)[nH]1` the T/C (dose: 75.0 mg/kg/injection, schedule: Q04DX003 (sc), vehicle: Klucel (hydroxypropylcellulose) (HPC)) was 122 % of control, the T/C [5] was 90 % of control and the T/C [6] was 54 % of control. For the same molecule, the T/C [7] was 58 % of control.

With `C[C@]12CC[C@@H]3c4ccc(OC(=O)Cc5ccc(N(CCCl)CCCl)cc5)cc4CC[C@H]3[C@@H]1CC[C@@H]2OC(=O)Cc1ccc(N(CCCl)CCCl)cc1` the T/C [8] was 58 % of control, the T/C [9] was 50 % of control and the T/C [10] was 33 % of control. The T/C [11] was 36 % of control, the T/C (dose: 1600.0 mg/kg/injection, schedule: Q04DX003 (sc), vehicle: saline with Tween-80) was 7 % of control and 26 % of control and the T/C (dose: 2000.0 mg/kg/injection, schedule: Q04DX003 (sc), vehicle: saline with Tween-80) was 21 % of control. The T/C [12] was 35 % of control.

With `CCOC(=O)Nc1cc2c(c(N)n1)N=C(c1ccccc1)CN2` the T/C (dose: 6.25 mg/kg/injection, schedule: Q04DX003 (sc), vehicle: saline with Tween-80) was 80 % of control, the T/C (dose: 12.5 mg/kg/injection, schedule: Q04DX003 (sc), vehicle: saline with Tween-80) was 83 % of control and the T/C (dose: 25.0 mg/kg/injection, schedule: Q04DX003 (sc), vehicle: saline with Tween-80) was 68 % of control.

In the case of `CCCCOCN(COCCCC)C(C)Cc1ccccc1` (configuration not stated), the T/C [8] is reported as 70 % of control, the T/C [9] is reported as 52 % of control and the T/C [10] is reported as 66 % of control.

`Oc1cc2ccccc2c(-c2c(O)c(O)cc3ccccc23)c1O` was tested, and the T/C (dose: 150.0 mg/kg/injection, schedule: Q04DX003 (sc), vehicle: saline with Tween-80) was 162 % of control, the T/C [3] was 151 % of control and the T/C [11] was 96 % of control.

`CNC(=O)OCc1c(COC(=O)NC)c(-c2ccc(Cl)c(Cl)c2)n2c1Cc1ccccc1C2` was tested, and the T/C (dose: 300.0 mg/kg/injection, schedule: Q04DX003 (sc), vehicle: distilled water + Tween-80) was 64 % of control, the T/C (dose: 600.0 mg/kg/injection, schedule: Q04DX003 (sc), vehicle: distilled water + Tween-80) was 70 % of control and the T/C (dose: 1200.0 mg/kg/injection, schedule: Q04DX003 (sc), vehicle: distilled water + Tween-80) was 103 % of control. For the same molecule, the T/C (dose: 2400.0 mg/kg/injection, schedule: Q04DX003 (sc), vehicle: distilled water + Tween-80) was 36 % of control.

In the case of `N=c1ccn2c(n1)OC1C(O)C(CO)OC12` (configuration not stated), the T/C (dose: 150.0 mg/kg/injection, schedule: Q04DX003 (sc), vehicle: saline) is reported as 102 % of control, the T/C (dose: 300.0 mg/kg/injection, schedule: Q04DX003 (sc), vehicle: saline) is reported as 84 % of control and the T/C (dose: 400.0 mg/kg/injection, schedule: Q04DX003 (sc), vehicle: saline) is reported as 95 % of control. For the same molecule, the T/C (dose: 600.0 mg/kg/injection, schedule: Q04DX003 (sc), vehicle: saline) was 42 % of control, the T/C (dose: 600.0 mg/kg/injection, schedule: Q04DX003 (sc), vehicle: suspension in saline) was 70 % of control and the T/C (dose: 800.0 mg/kg/injection, schedule: Q04DX003 (sc), vehicle: saline) was 69 % of control. The T/C (dose: 1200.0 mg/kg/injection, schedule: Q04DX003 (sc), vehicle: saline) was 50 % of control, the T/C (dose: 1200.0 mg/kg/injection, schedule: Q04DX003 (sc), vehicle: suspension in saline) was 55 % of control and the T/C (dose: 1600.0 mg/kg/injection, schedule: Q04DX003 (sc), vehicle: saline) was 64 % of control. For the same molecule, the T/C (dose: 2400.0 mg/kg/injection, schedule: Q04DX003 (sc), vehicle: suspension in saline) was 70 % of control.

`CN1C(=O)CC2(CCN(CCCC(=O)c3ccc(F)cc3)CC2)C1=O` was tested, and the T/C (dose: 37.5 mg/kg/injection, schedule: Q04DX003 (sc), vehicle: suspension in saline) was 61 % of control and the T/C (dose: 150.0 mg/kg/injection, schedule: Q04DX003 (sc), vehicle: suspension in saline) was 85 % of control.

With `Nc1nc(N)c(N=O)c(Nc2ccc(Br)cc2)n1` the T/C [3] was 42 % of control, the T/C [4] was 42 % of control and the T/C [11] was 38 % of control. For the same molecule, the T/C [12] was 40 % of control.

`Cc1ccc(NCCN(C)C)c2c(=O)c3cc(O)ccc3sc12` was tested, and the T/C [5] was 54 % of control, the T/C [6] was 62 % of control and the T/C [7] was 120 % of control. The T/C [13] was 75 % of control.

`CCOc1ccc(-c2nc3ccc(-c4nc5ccc(N6CCN(C)CC6)cc5[nH]4)cc3[nH]2)cc1` was tested, and the T/C (dose: 25.0 mg/kg/injection, schedule: Q04DX003 (ip), vehicle: saline) was 96 % of control.

In the case of `CNC(=O)OCc1nc(SC)n(C)c1COC(=O)NC`, the T/C (dose: 50.0 mg/kg/injection, schedule: Q04DX003 (ip), vehicle: saline) is reported as 8 % of control, the T/C (dose: 100.0 mg/kg/injection, schedule: Q04DX003 (ip), vehicle: saline) is reported as 3 % of control and the T/C (dose: 200.0 mg/kg/injection, schedule: Q04DX003 (ip), vehicle: saline) is reported as -56 % of control.

For `COc1cc2cc(c1Cl)N(C)C(=O)CC(OC(=O)C(C)C)C1(C)OC1C(C)C1CC(O)(NC(=O)O1)C(OC)/C=C/C=C(C)C2` (configuration not stated), the T/C (dose: 1.56 micrograms/kg/injection, schedule: Q01DX010 (sc), vehicle: saline + alcohol) was 40 % of control, the T/C (dose: 3.12 micrograms/kg/injection, schedule: Q01DX010 (sc), vehicle: saline + alcohol) was 67 % of control and the T/C (dose: 6.25 micrograms/kg/injection, schedule: Q01DX010 (sc), vehicle: saline + alcohol) was 53 % of control. The T/C (dose: 12.5 micrograms/kg/injection, schedule: Q01DX010 (sc), vehicle: saline + alcohol) was 67 % of control.

With `N/C=N/O` the T/C [14] was 107 % of control, the T/C (dose: 200.0 mg/kg/injection, schedule: Q01DX010 (sc), vehicle: saline) was 53 % of control and the T/C (dose: 400.0 mg/kg/injection, schedule: Q01DX010 (sc), vehicle: saline) was 81 % of control.

In the case of `CC1CN=C(c2ccc(NC(=O)c3ccc(C(=O)Nc4ccc(C5=NCC(C)N5)cc4)cc3)cc2)N1` (configuration not stated), the T/C [1] is reported as 96 % of control, the T/C (dose: 200.0 mg/kg/injection, schedule: Q01DX010 (sc), vehicle: Klucel (hydroxypropylcellulose) (HPC)) is reported as 107 % of control and the T/C (dose: 400.0 mg/kg/injection, schedule: Q01DX010 (sc), vehicle: Klucel (hydroxypropylcellulose) (HPC)) is reported as 110 % of control. The T/C [2] was 77 % of control.

With `NC(=O)c1csc(C2OC(CO)C(O)C2O)n1` (configuration not stated) the T/C (dose: 200.0 mg/kg/injection, schedule: Q04DX003 (sc), vehicle: water) was 90 % of control, the T/C (dose: 400.0 mg/kg/injection, schedule: Q04DX003 (sc), vehicle: water) was 96 % of control and the T/C (dose: 800.0 mg/kg/injection, schedule: Q04DX003 (sc), vehicle: water) was 118 % of control.

With `COc1cc(C)c2c(c1C=O)Oc1c(c(C)c(O)c3c1C(O)OC3=O)OC2=O` (configuration not stated) the T/C (dose: 6.25 mg/kg/injection, schedule: Q01DX010 (sc), vehicle: saline) was 90 % of control, the T/C (dose: 12.5 mg/kg/injection, schedule: Q01DX010 (sc), vehicle: saline) was 62 % of control and 78 % of control and the T/C (dose: 25.0 mg/kg/injection, schedule: Q01DX010 (sc), vehicle: saline) was 96 % of control and 118 % of control. For the same molecule, the T/C (dose: 50.0 mg/kg/injection, schedule: Q01DX010 (sc), vehicle: saline) was 67 % of control and 88 % of control and the T/C [14] was 98 % of control.

With `CN(C1=NS(=O)(=O)N=C(N(C)c2ccccc2)O1)c1ccccc1` the T/C [6] was 102 % of control, the T/C [7] was 110 % of control and the T/C [13] was 113 % of control. For the same molecule, the T/C (dose: 2400.0 mg/kg/injection, schedule: Q04DX003 (sc), vehicle: Klucel (hydroxypropylcellulose) (HPC)) was 106 % of control.
